# Reference: patent US11986482B2, “Method of promoting antitumor or anti-cancer immunity” (City University of Hong Kong, priority 2021, dated 2024)
# Key:
# [1] = tested on: PD-L1; assay: Plasma membrane PD-L1 level in 4T1 cells (flow cytometry); type: cell-based, mouse; conditions: 1 μM
# Experimental: The current PD-L1 and PD1 therapies apply PD-L1 or PD1 monoclonal antibodies to block the PD-L1/PD1 signaling, which results in cytotoxic T cells recognizing and killing the tumor cells. […] First, flow cytometry-based quantification of plasma membrane levels of PD-L1 in 4T1 cells treated with or without 6J1 (1 μM) for 24 h. 4T1 cells are treated with or without 6J1 (1 μM) for 24 h. The supernatant is collected, and the concentration of extracellular vesicle is determined using a Nanosight nanoparticle analyzer in FIG. 8b. The exosomes are also collected and subjected to western blot analysis of the EVs marker and PD-L1 in FIG. 8c.
# Therefore, it is possible that the increased exosomal PD-L1 secretion induced by 6J1 may still suppress the tumor-infiltrating T cell cytotoxicity in vivo, even though 6J1 reduces the cell surface expression level of PD-L1 on the tumor cells. To evaluate the role of exosomal PD-L1 in the tumor microenvironment and tumor progression in mice, inventors knock out Rab27a in 4T1 cells to inhibit the secretion of exosomes. 4T1-shNC or 4T1-shRab27A cells are treated with or without 6J1 (1 μM). The supernatant is collected, and the concentration of extracellular vesicle is determined using a Nanosight nanoparticle analyzer. […] Inventors analyze the plasma membrane levels of PD-L1 in 4T1-shNC or 4T1-shRab27A cells treated with or without 6J1 (1 μM). […] Next, control or Rab27a-knockout 4T1 cells are orthotopically transplanted into syngeneic fat pads of female Balb/c. The mice are randomly divided (n=5 per group) and treated with either buffer or 6J1 (30 mg/kg, daily) via oral gavage. […] Inventors also perform the immunostaining of CD8 and Granzyme B in the tumor sections. […] Since enhanced antitumor immunity leads to increased apoptosis in tumors, inventors assess the levels of cleaved caspase3 (CCA3), one of the markers of apoptosis, in tumor sections as well.
# Finally, inventors assess the combinatory effects of 6J1 with GW4869, an exosome secretion inhibitor, in the aforementioned orthotopic mammary carcinoma mouse models. […]
# [2] = tested on: PD-L1; assay: Western blot of PD-L1 in total cell lysates and exosomes of HeLa cells; type: cell-based; conditions: for 6J1-induced exosomal PD-L1 secretion: 1 μM, 24 h
# Experimental: PD-L1 has been previously shown to be secreted outside the cell through exosomes. HeLa cells are plated on coverslips in 24-well plates and stained with the anti-PD-L1 antibody on ice for 1 h. At the indicated times after being incubated at a warm medium at 37° C., cells are fixed and stained with antibodies against CD63 or Rab27a. […] Cells are treated with or without ionomycin (1 μM) for 48 h. The supernatant is collected and subjected to western blot analysis. […] Since the amphisome, which is formed by the fusion of the autophagosome with the MVB/late endosome, has been implicated in extracellular vesicles secretion, and PD-L1 is found to be associated with LC3B during PD-L1 trafficking (FIG. 2a), inventors examine whether the autophagosome formation is involved in exosomal PD-L1 secretion. Thus, inventors knock out the expression of Rab27A, LC3B or ATG4B in HeLa cells and collect their supernatant respectively for western blot analysis.
# Furthermore, HeLa cells are treated with or without Bafilomycin A1 (10 nM), or Torin 1 (100 nM) for 48 h. The cell lysates and supernatant are collected for western blot analysis. […] In contrast, Torin1, an autophagy activator, has little effect on total and exosomal PD-L1 levels (FIG. 2g). […] On the other hand, blockage on the fusion between lysosomes and late endosomes or autophagosomes may induce PD-L1 secretion via exosomes.
# It has previously been shown that interfering with endosomal trafficking promotes exosome secretion. Moreover, PD-L1 has been reported to be enriched in exosomes and secreted outside the cell. Thus, inventors speculate that 6J1 may induce the secretion of the PD-L1 trapped in the endosomal compartments via exosomes. To determine whether 6J1 may induce the secretion of PD-L1 via exosomes, HeLa cells are treated with or without 6J1 (1 μM) for 24 h. The supernatant is collected. Inventors purify the exosomes from the supernatant of HeLa cells by sequential centrifugation. The concentration of extracellular vesicle is determined using a Nanosight nanoparticle analyzer. And HeLa cells are treated with or without 6J1 (1 μM) for 48 h. The cell and supernatant are collected for Western Blot analysis. […] Moreover, the activity of Rab27a in HeLa cells treated with or without 6J1 (1 μM) is examined with a GST-SHD pulldown assay.
# Moreover, ATG5- or LC3-knockout HeLa cells are treated with or without 6J1 (1 μM) for 24 h. The supernatant is collected, and the concentration of the extracellular vesicle is determined using a Nanosight nanoparticle analyzer. The exosomes are also collected and subjected to western blot analysis of the EVs marker and PD-L1 in FIG. 7a. The live cells are also labeled with an anti-PD-L1 antibody in FIG. 7b and subjected to flow cytometry analysis in FIG. 7c. […] In addition, inventors assess whether other autophagy-related genes, e.g., ATG4B, ATG7, Beclin1, and Vps34 are involved in 6J1-mediated exosomal PD-L1 secretion. ATG4B-, ATG7-, Beclin1-, or VPS34-knockout HeLa cells are treated with or without 6J1 (1 μM) for 24 h. The supernatant is collected, and the concentration of extracellular vesicle is determined using a Nanosight nanoparticle analyzer. The exosomes are also collected and subjected to western blot analysis of the EVs marker and PD-L1 in FIG. 7d. The live cells are also labeled with an anti-PD-L1 antibody and subjected to flow cytometry analysis in FIG. 7e.
# [3] = tested on: EGFR; assay: EGFR degradation assay (EGF-488); type: cell-based; conditions: HeLa cells, 6J1 1 μM 3 h, EGF-488 2 μg/ml, 2 h of EGF treatment
# Experimental: Furthermore, HeLa cells are pretreated with DMSO or 6J1 (1 μM) for 3 h. Then, cells are incubated with EGF-488 (2 μg/ml) on ice for 1 h followed by incubating in the complete medium at 37° C. in a CO2 incubator. Cells are fixed at the indicated times and imaged.
structure (smiles),measurement,setting,value
OCCOCCN(c1ccccc1)c1nc(N/N=C/c2cccc(I)c2)nc(N2CCOCC2)n1 [Compound 6J1],6J1-induced decrease of cell surface PD-L1 levels,[1]; 4T1-shRab27A cells,does not influence the 6J1-induced decrease of cell surface PD-L1 levels
same,level of cell surface PD-L1,"[1]; 4T1 cells, 24 h",decreases the level of cell surface PD-L1
same,6J1-induced exosomal PD-L1 secretion,"[2]; ATG4B-, ATG7-, Beclin1- or VPS34-knockout HeLa cells",fails to abolish
same,6J1-induced exosomal PD-L1 secretion,[2]; ATG5- or LC3B-knockout HeLa cells,Neither ATG5 nor LC3B knockout impairs
same,exosomal PD-L1 level,"[2]; HeLa cells, 48 h, ionomycin 1 μM, Bafilomycin A1 10 nM, Torin 1 100 nM, 6J1 1 μM",increases PD-L1 level in exosomes
same,EGFR degradation,[3],blocks the EGFR degradation
